Experiments:
[1] = system: eIF3η and PABPC1 puncta in U2OS cells; test: Immunofluorescence of additional stress granule markers after preincubation; assay type: cell-based; conditions: 50 μM pretreatment, 250 μM NaAsO2 for 30 min
Description: U2OS cells or U2OS cells stably expressing G3BP1-GFP were seeded in four-well Lab-Tek II Chambered Coverglass (1055360; Thermo Fisher Scientific). For preincubation experiments, cells were treated with 50 μM G3I compound for 20 min or 24 h, followed by 250 μM NaAsO2 and 50 μM G3I compound for 30 min. For posttreatment, cells were treated with 250 μM NaAsO2 for 30 min, followed by treatment with 250 μM NaAsO2 and 50 μM G3I compound for 5 min. Cells were then washed twice with PBS and fixed with 4% PFA in PBS for 10 min. Cells were then washed three times with PBS (5 min between each wash), permeabilized with 0.5% Triton X-100 in PBS for 10 min, and washed twice with PBS. Next, cells were blocked for 1 h with 3% BSA in PBS at room temperature, followed by incubation with primary antibodies diluted in 3% BSA overnight at 4°C. Cells were then washed three times with PBS (5 min between each wash) and incubated with secondary antibodies and Hoechst diluted in 3% BSA at room temperature for 1 h. Cells were then washed three times with PBS (5 min between each wash) and imaged. […]

[2] = system: TDP-43 localization to stress granules in CRISPR-modified U2OS cells; test: Live imaging of GFP-TDP-43 and mRuby3-G3BP1 in CRISPR-modified U2OS cells; assay type: cell-based; conditions: 50 μM pretreatment, 250 μM NaAsO2 for 30 min
Description: For preincubation of compounds, U2OS or HeLa cells stably expressing G3BP1-GFP or CRISPR-modified cells expressing TDP-43-GFP/G3BP1-GFP were seeded into eight-well Lab-Tek chambered cover glass (Nunc). At least 20 min prior to the experiment, 1 ml FluoroBrite DMEM media (Gibco) supplemented with 10% FBS and 4 mM L-glutamine was combined with 0.1% DMSO or G3I compound (5, 10, or 50 μM). This solution was vortexed for 5 s, added to the cells at 250 μl per well, and left to incubate on the microscope for 20 min. Conditions were maintained at 37°C and 5% CO2 using a Bold Line Cage Incubator (Okolab) and an objective heater (Bioptechs). During this incubation time, 5 xy fields were stored per condition, with each field having ∼20–30 cells within it. After the 20-min incubation, 250 μl of 500 μM or 1 mM (2×) sodium arsenite (Sigma-Aldrich) diluted in the FluoroBrite media with an appropriate amount of G3I compound or DMSO was added to the sample. Imaging began immediately after, with images at each xy field being taken every 1 min. For heat shock experiments, U2OS G3BP1-GFP-expressing cells were seeded into a 35-mm glass bottom dish (MatTek). Prior to the experiment, 1.5 ml FluoroBrite DMEM media (Gibco) supplemented with 10% FBS and 4 mM L-glutamine was combined with 0.1% DMSO or 50 μM G3I compound. The sample was incubated on the environmentally controlled microscope for 20 min. […]

[3] = molecular target: T1, condensate formation by G3BP1 and RNA (Homo sapiens, UniProt Q13283); test: In vitro LLPS, two-component system (G3BP1 and RNA); assay type: biochemical; conditions: 20 μM G3BP1, 100 ng RNA, up to 166 μM compound
T1 construct: made in house; host or cells: E. coli BL21 (DE3)
T1 sequence (Q13283 whole entry): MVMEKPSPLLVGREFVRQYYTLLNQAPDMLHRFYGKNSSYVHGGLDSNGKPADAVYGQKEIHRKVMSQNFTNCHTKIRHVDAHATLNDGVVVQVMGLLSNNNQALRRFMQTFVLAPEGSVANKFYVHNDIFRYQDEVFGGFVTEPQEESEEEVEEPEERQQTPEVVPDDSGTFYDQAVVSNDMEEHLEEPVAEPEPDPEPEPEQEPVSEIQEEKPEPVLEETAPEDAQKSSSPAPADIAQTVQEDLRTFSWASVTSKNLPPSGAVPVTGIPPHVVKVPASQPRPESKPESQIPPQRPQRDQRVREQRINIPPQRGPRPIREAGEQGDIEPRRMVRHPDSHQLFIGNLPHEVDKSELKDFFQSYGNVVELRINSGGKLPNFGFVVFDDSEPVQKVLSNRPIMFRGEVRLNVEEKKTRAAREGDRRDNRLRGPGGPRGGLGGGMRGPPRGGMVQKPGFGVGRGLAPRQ
Description: LLPS assays were performed in 30 μl total volume at 25°C at pH 7.4 in buffer containing 37 mM Tris, pH 7.5, 116 mM NaCl, 0.33% NP-40, 2.6% glycerol, 0.5 mM DTT with 20 ng/μl total cellular RNA from U2OS cells and 1.425 μM G3BP1, 0.075 μM FLAG-GFP-G3BP1, and 1.5 μM caprin 1. Reactions were initiated by adding G3BP1/caprin 1 protein mix to cellular RNA, followed by 3 min of shaking at 450 rpm and then incubation for 70 min in the dark. For condensates formed with G3BP1 and RNA, 20 μM purified G3BP1 and 100 ng of total cellular RNA from HEK293T cells were added to a buffer consisting of 100 mM NaCl and 16.7 mM HEPES (pH 7.5) in the presence of the indicated dose of G3Ib or vehicle control.

| SMILES | eIF3η and PABPC1 puncta [1] | TDP-43 localization to stress granules [2] | condensate formation by G3BP1 and RNA [3] |
| --- | --- | --- | --- |
| COCCC(NC(=O)C(C)NC(=O)C(NC(=O)C(NC(=O)C(F)CC(C)(C)C)C(C)(C)O)C(C)c1ccccc1)C(=O)N(C)Cc1ccccc1 (centres unmarked) [G3Ia] | reduced eIF3η and PABPC1 puncta | – | – |
| CC(NC(=O)C(NC(=O)C(NC(=O)CCC(C)(C)C)C(C)(C)O)C(C)c1ccccc1)C(=O)N1CCCC1c1ccccc1 (centres unmarked) [G3Ib] | reduced eIF3η and PABPC1 puncta | not | unaffected |
| CC(NC(=O)C(NC(=O)C(NC(=O)CCC(C)(C)C)C(C)(C)O)C(C)c1ccccc1)C(=O)N1CCCC1c1ccccc1 (centres unmarked) [G3Ib′] | – | a small proportion of TDP-43 localized to stress granules | – |

Source: article PMC10824102, “Identification of small molecule inhibitors of G3BP-driven stress granule formation” (The Journal of Cell Biology, 2024)
